These results are taken from patent US20050148598A1, “Trioxane derivatives” (priority 2001, published 2005).

One series concerns MCF7 (Breast). Briefly: NCI 3-cell line anticancer assay, MCF7. The series is classed as cell-based. The note with it: 1.00E−04 Molar, 48 hours, sulforhodamine B. On the procedure: (§1) The anticancer activity of these compounds of the present invention was also assessed, by NCI 3-cell line anticancer assay. In this protocol, each cell line is inoculated and preincubated on a microtiter plate. Test agents are then added at a single concentration and the culture incubated for 48 hours. End-point determinations are made with sulforhodamine B, a protein-binding dye. Results for each test agent are reported as the percentage of growth of the treated cells when compared to the untreated control cells. Compounds which reduce the growth of any one of the cells lines to 32% or less (negative numbers indicate cell kill) are passed on for evaluation in the full panel of 60 cell lines over a 5-log dose range.

Series [1] has as its system K1 strain of P. falciparum. The experiment in a line: 48-h [3H]-hypoxanthine incorporation antimalarial sensitivity assay, K1 strain. Format: cell-based. On the procedure: (§2) The antimalarial activity of the new compounds was assessed using two strains of P. falciparum from Thailand: (a) the uncloned K1 strain which is known to be CQ resistant and (b) the HB3 strain which is sensitive to all antimalarials. Parasites were maintained in continuous culture using the method of Trager and Jenson (J. Parasitol., 1977, 63, 883-886). Cultures were grown in flasks containing human erythrocytes (2-5%) with parasitemia in the range of 1% to 10% suspended in RPMI 1640 medium supplemented with 25 mM HEPES and 32 mM NaHCO3, and 10% human serum (complete medium). Cultures were gassed with a mixture of 3% O2, 4% CO2 and 93% N2.
(§3) Antimalarial activity was assessed with an adaption of the 48-h sensitivity assay of Desjardins et al. (Antimicrob. Agents. Chemother., 1979, 16, 710-718) using [^3H]-hypoxanthine incorporation as an assessment of parasite growth. Stock drug solutions were prepared in 100% dimethylsulphoxide (DMSO) and diluted to the appropriate concentration using complete medium. Assays were performed in sterile 96-well microtitre plates, each plate containing 200 μl of parasite culture (2% parasitemia, 0.5% haematocrit) with or without 10 μl drug dilutions. Each drug was tested in triplicate and parasite growth was compared to control wells (which constituted 100% parasite growth). After 24-h incubation at 37° C., 0.5 μCi hypoxanthine was added to each well. Cultures were incubated for a further 24 h before they were harvested onto filter-mats, dried for 1 h at 55° C. and counted using a Wallac 1450 Microbeta Trilux Liquid scintillation and luminescence counter. IC50 values were calculated by interpolation of the probit transformation of the log dose—response curve.

Another series has as its system SF-268 (CNS). Briefly: NCI 3-cell line anticancer assay, SF-268. Format: cell-based. The note with it: 1.00E−04 Molar, 48 hours, sulforhodamine B. On the procedure:
as §1

In the next series the test system is NCI-H460 (Lung). The experiment in a line: NCI 3-cell line anticancer assay, NCI-H460. The note with it: 1.00E−04 Molar, 48 hours, sulforhodamine B. The series is classed as cell-based. How it is done: as §1
The test system of series [2] is HB3 strain of P. falciparum. The experiment in a line: 48-h [3H]-hypoxanthine incorporation antimalarial sensitivity assay, HB3 strain. To be noted: HB3 strain (sensitive) of P. falciparum in vitro. The series is classed as cell-based. On the procedure:
as §2, §3

The subject of a further series is L1210 cells. The note with it: cited from earlier work.
Where [3] appears, read: K1 strain (CQ resistant) of P. falciparum in vitro, read-out: IC50.
The mark [4] stands for this setting: Plasmodium falciparum, K1 strain (CQ resistant) of P. falciparum in vitro, read-out: IC50.

Like-named read-outs stand apart in the source and are kept apart here.

What is called IC50 is the point on the concentration scale where inhibition reaches its midpoint. In the case of `C[C@H]1[C@@H](OCc2cccc(CN3CCN(c4ccc(Cl)cc4)CC3)c2)O[C@@H]2O[C@@]3(C)CC[C@H]4[C@H](C)CC[C@@H]1[C@@]24OO3` [Compound 13h, 10β-[[3-[(4-Chlorophenylpiperazyl)methyl]benzyl]oxy]dihydroartemisinin], the “percentage of growth of the treated cells compared to untreated control cells, MCF7 (Breast)” value (“percentage of growth … (Breast)” below) in the series on MCF7 (Breast) was determined as 11%. For the same compound, in series [1] (setting [3]), the IC50 amounted to 13.3 nM. The “percentage of growth of the treated cells compared to untreated control cells, SF-268 (CNS)” value (“percentage of growth … (CNS)” for short) with SF-268 (CNS) is given as 31%. The “percentage of growth of the treated cells compared to untreated control cells, NCI-H460 (Lung)” value (shortened to “percentage of growth … (Lung)”) in the series with NCI-H460 (Lung) was determined as 22%.

As to `CC1CCC2C(C)C(OCc3cccc(CN4CCN(c5ccccc5)CC4)c3)OC3OC4(C)CCC1C32OO4` (stereo not drawn) [Compound 13f, 10β-[[3-[(Phenylpiperazyl)methyl]benzyl]oxy]dihydroartemisinin], the values for the IC50 in series [1] (setting [3]) and in series [2] were 6.6 nM and 3.4 nM, respectively.

With “10β-[[4-[Phenylpiperazyl)methyl]benzyl]dihydroartemisinin [Compound 13a]”, the concentration for half-maximal inhibition (IC50) in series [1] (setting [3]) came to 8.2 nM.

On to `CC1CCC2C(C)C(OCc3ccc(CN4CCN(c5ccc([N+](=O)[O-])cc5)CC4)cc3)OC3OC4(C)CCC1C32OO4` (stereo not shown) [Compound 13b], for which the IC50 in series [1] (setting [3]) was 138 nM.

As to `CCN(CC)CCCC(C)Nc1ccnc2cc(Cl)ccc12` (stereo not shown) [Chloroquine, chloroquine, reference compound], the IC50 in series [1] (Plasmodium falciparum, K1) amounted to 255 nM.

As to `CC1CCC2C(C)C(OCc3ccc(CN4CCN(c5ccc(F)cc5)CC4)cc3)OC3OC4(C)CCC1C32OO4` (stereo not drawn) [Compound 13c, 10β-[[4-[(4-Fluorophenylpiperazyl)methyl]benzyl]oxy]dihydroartemisnin], the “percentage of growth … (Breast)” value in the series on MCF7 (Breast) is reported as 13%. Besides, the IC50 in series [1] (setting [3]) was determined as 6.3 nM; in series [2] it was 2.3 nM. For the same compound, the “percentage of growth … (CNS)” value in the series with SF-268 (CNS) came out at 27%. Moreover, the “percentage of growth … (Lung)” value in the series on NCI-H460 (Lung) is reported as 12%.

With `C[C@@H]1CCC2[C@@H](C)[C@@H](OCc3ccc(CN4CCN(Cc5ccccc5)CC4)cc3)OC3O[C@@]4(C)CC[C@@H]1[C@]32OO4` (stereo partly drawn) [Compound 13e, 10β-[[4-[(Benzylpiperazyl)methyl]benzyl]oxy]dihydroartemisinin], the figures for the IC50 in series [1] (setting [4]) and in series [2] (Plasmodium falciparum) were 3.8 nM and 1.8 nM, respectively.

On to `CC1CCC2C(C)C(OCc3cccc(CN4CCN(c5cccc(C(F)(F)F)c5)CC4)c3)OC3OC4(C)CCC1C32OO4` (stereo not drawn) [Compound 13i, 10β-[[3-[(3-Trifluoromethylphenylpiperazyl)methyl]benzyl]oxy]dihydroartemisinin], for which, in the series with MCF7 (Breast), the “percentage of growth … (Breast)” value turned out to be 10%. Also, the IC50 in series [1] (setting [3]) is 22.5 nM. In addition, the “percentage of growth … (CNS)” value in the series with SF-268 (CNS) was 29%. Further, the “percentage of growth … (Lung)” value in the series with NCI-H460 (Lung) came to 15%.

Take `CO[C@H]1O[C@@H]2O[C@@]3(C)CC[C@H]4[C@H](C)CC[C@@H]([C@H]1C)[C@@]24OO3` [Artemether, artemether, reference compound]: the IC50 in series [1] (setting [4]) worked out at 6.5 nM; in series [2] (Plasmodium falciparum), 9.2 nM.

With `CC1CCC2C(C)C(OCc3ccc(CN4CCN(c5ccc(C(F)(F)F)cc5)CC4)cc3)OC3OC4(C)CCC1C32OO4` (stereo not drawn) [Compound 13d, 10β-[[4-[(4-Trifluoromethylphenylpiperazyl)methyl]benzyl]oxy]dihydroartemisinin], the IC50 was determined as 12.5 nM in series [1] (setting [3]) and 8.1 nM in series [2].

Take `CCNCCCNCCCCNCCCNCC` [DESPM]: the “cytotoxic effects in L1210 cells” value in the series on L1210 cells was 0.2 µM.

Take `CCNCCCNCCCNCCCNCC` [DENSPM]: the “cytotoxic effects in L1210 cells” value with L1210 cells was 1.3 µM.

As to `CCNCCCCNCCCCNCCCCNCC` [DEHSPM], the “cytotoxic effects in L1210 cells” value with L1210 cells is 0.06 µM.

In the case of `CC1CCC2C(C)C(OCc3cccc(CN4CCN(c5ccc(F)cc5)CC4)c3)OC3OC4(C)CCC1C32OO4` (stereo not drawn) [Compound 13j, 10β-[[3-[(4-Fluorophenylpiperazyl)methyl]benzyl]oxy]dihydroartemisinin], the IC50 in series [1] (setting [3]) and in series [2] was 12.6 nM throughout.

For `CC1CCC2C(C)C(OCc3cccc(CN4CCN(c5ccc([N+](=O)[O-])cc5)CC4)c3)OC3OC4(C)CCC1C32OO4` (stereo not drawn) [Compound 13g, 10β-[[3-[(4-Nitrophenylpiperazyl)methyl]benzyl]oxy]dihydroartemisinin], the IC50 in series [1] (setting [3]) and in series [2] was 4.3 nM each time.
